In the data set the test system is CCRIS mutagenicity, Ames/micronucleus/aberration tests. Briefly: CCRIS mutagenicity studies.
Setting [1] is: Test System: AMES SALMONELLA TYPHIMURIUM, Strain/Indicator: TA97, Metabolic Activation: NONE, Method: STANDARD PLATE.
Where [2] appears, read: Test System: AMES SALMONELLA TYPHIMURIUM, Strain/Indicator: TA98, Metabolic Activation: NONE, Method: STANDARD PLATE.
[3] abbreviates: Test System: AMES SALMONELLA TYPHIMURIUM, Strain/Indicator: TA100, Metabolic Activation: NONE, Method: STANDARD PLATE.
The mark [4] stands for this setting: Test System: AMES SALMONELLA TYPHIMURIUM, Strain/Indicator: TA102, Metabolic Activation: NONE, Method: STANDARD PLATE.
The mark [5] stands for this setting: Test System: AMES SALMONELLA TYPHIMURIUM, Strain/Indicator: TA98, Metabolic Activation: NONE, Method: PREINCUBATION
Where [6] appears, read: Test System: AMES SALMONELLA TYPHIMURIUM, Strain/Indicator: TA100, Metabolic Activation: NONE, Method: PREINCUBATION
Where [7] appears, read: Test System: AMES SALMONELLA TYPHIMURIUM, Strain/Indicator: TA98, Metabolic Activation: RAT, LIVER, S-9, AROCLOR 1254, Method: STANDARD PLATE.
Setting [8] is: Test System: AMES SALMONELLA TYPHIMURIUM, Strain/Indicator: TA100, Metabolic Activation: RAT, LIVER, S-9, AROCLOR 1254, Method: STANDARD PLATE.
The mark [9] stands for this setting: Test System: AMES SALMONELLA TYPHIMURIUM, Strain/Indicator: TA1535, Metabolic Activation: NONE, Method: STANDARD PLATE.
Setting [10] is: Test System: AMES SALMONELLA TYPHIMURIUM, Strain/Indicator: TA1535, Metabolic Activation: RAT, LIVER, S-9, AROCLOR 1254, Method: STANDARD PLATE.
Where [11] appears, read: Test System: AMES SALMONELLA TYPHIMURIUM, Strain/Indicator: TA1537, Metabolic Activation: NONE, Method: STANDARD PLATE.
Where [12] appears, read: Test System: AMES SALMONELLA TYPHIMURIUM, Strain/Indicator: TA1537, Metabolic Activation: RAT, LIVER, S-9, AROCLOR 1254, Method: STANDARD PLATE.

Activity calls are given as the source filed them. How the calls were made is not given here.

With `Cc1ccc([N+](=O)[O-])cc1NO`, the mutagenic call runs as follows: (Test System: AMES SALMONELLA TYPHIMURIUM, Strain/Indicator: TA98, Metabolic Activation: NONE, Method: SUSPENSION/PLATE) “inactive; negative”; (Test System: AMES SALMONELLA TYPHIMURIUM, Strain/Indicator: TA98, Metabolic Activation: RAT, LIVER, S-9, PHENOBARBITAL AND 5,6-BENZOFLAVONE, Method: SUSPENSION/PLATE) “inactive; negative”; (Test System: AMES SALMONELLA TYPHIMURIUM, Strain/Indicator: TA100, Metabolic Activation: NONE, Method: SUSPENSION/PLATE) “inactive; negative”; (Test System: AMES SALMONELLA TYPHIMURIUM, Strain/Indicator: TA100, Metabolic Activation: RAT, LIVER, S-9, PHENOBARBITAL AND 5,6-BENZOFLAVONE, Method: SUSPENSION/PLATE) “inactive; negative”.

On to `COc1cc2nc3occc3c(OC)c2cc1OC`, for which the mutagenic call is “active; positive” (Test System: AMES SALMONELLA TYPHIMURIUM, Strain/Indicator: TA98, Metabolic Activation: RAT, LIVER, S-9, PHENOBARBITAL, Method: STANDARD PLATE) and “active; positive” (Test System: AMES SALMONELLA TYPHIMURIUM, Strain/Indicator: TA100, Metabolic Activation: RAT, LIVER, S-9, PHENOBARBITAL, Method: STANDARD PLATE).

Regarding `O=C1c2ccccc2C(=O)N1SC1CCCCC1`, the mutagenic call was “inactive; negative” under setting [1]; “inactive; negative” (Test System: AMES SALMONELLA TYPHIMURIUM, Strain/Indicator: TA97, Metabolic Activation: RAT LIVER S-9, DELOR 103 (4% OR 10%), Method: STANDARD PLATE); “inactive; negative” under setting [2]; “inactive; negative” (Test System: AMES SALMONELLA TYPHIMURIUM, Strain/Indicator: TA98, Metabolic Activation: RAT LIVER S-9, DELOR 103 (4% OR 10%), Method: STANDARD PLATE); “inactive; negative” under setting [3]; “inactive; negative” (Test System: AMES SALMONELLA TYPHIMURIUM, Strain/Indicator: TA100, Metabolic Activation: RAT LIVER S-9, DELOR 103 (4% OR 10%), Method: STANDARD PLATE). The mutagenic call was “inactive; negative” under setting [4] and “inactive; negative” (Test System: AMES SALMONELLA TYPHIMURIUM, Strain/Indicator: TA102, Metabolic Activation: RAT LIVER S-9, DELOR 103 (4% OR 10%), Method: STANDARD PLATE).

In the case of `OC/C=C/C=C/CO`, the mutagenic call (Test System: CHINESE HAMSTER V-79, Strain/Indicator: V-79 (HGPRT)/8-AZAGUANINE, Metabolic Activation: NONE) is “inactive; negative”.

Consider `CCn1cc(C(=O)O)c(=O)c2cc(F)c(N3CCN(C)CC3)cc21`, for which the mutagenic call reads like this: under setting [4], “active; positive”; (Test System: CHINESE HAMSTER V-79, Strain/Indicator: V-79 (HPRT)/6-THIOGUANINE, Metabolic Activation: NONE) “inactive; negative”.

Take `CN(CCCC(=O)O)N=O`: the mutagenic call (Test System: AMES SALMONELLA TYPHIMURIUM, Strain/Indicator: TA1535, Metabolic Activation: RAT, LIVER, S-9, KC500 OR PHENOBARBITAL, Method: LIQUID SUSPENSION) is “active; positive”.

As to `CC(Oc1ccc(Oc2cnc3cc(Cl)ccc3n2)cc1)C(=O)O` (stereo not given), the mutagenic call is, setting by setting: (Test System: Mouse lymphoma, Strain/Indicator: L5178Y (tk+/tk-), Metabolic Activation: None, Method: Suspension/plate) “active; positive”; (Test System: Mouse lymphoma, Strain/Indicator: L5178Y (tk+/tk-), Metabolic Activation: Rat, Liver, S-9, Aroclor 1254, Method: Suspension/plate) “active; positive”.

`CCNCC`: the mutagenic call reads like this: (Test System: AMES SALMONELLA TYPHIMURIUM, Strain/Indicator: TA98, Metabolic Activation: HAMSTER, LIVER, S-9, AROCLOR 1254 (10%), Method: PREINCUBATION) “inactive; negative”; under setting [5], “inactive; negative”; (Test System: AMES SALMONELLA TYPHIMURIUM, Strain/Indicator: TA98, Metabolic Activation: RAT, LIVER, S-9, AROCLOR 1254 (10%), Method: PREINCUBATION) “inactive; negative”; (Test System: AMES SALMONELLA TYPHIMURIUM, Strain/Indicator: TA100, Metabolic Activation: HAMSTER, LIVER, S-9, AROCLOR 1254 (10%), Method: PREINCUBATION) “inactive; negative”; under setting [6], “inactive; negative”; (Test System: AMES SALMONELLA TYPHIMURIUM, Strain/Indicator: TA100, Metabolic Activation: RAT, LIVER, S-9, AROCLOR 1254 (10%), Method: PREINCUBATION) “inactive; negative”. Besides, the mutagenic call was “inactive; negative” (Test System: AMES SALMONELLA TYPHIMURIUM, Strain/Indicator: TA1535, Metabolic Activation: HAMSTER, LIVER, S-9, AROCLOR 1254 (10%), Method: PREINCUBATION); “inactive; negative” (Test System: AMES SALMONELLA TYPHIMURIUM, Strain/Indicator: TA1535, Metabolic Activation: NONE, Method: PREINCUBATION); “inactive; negative” (Test System: AMES SALMONELLA TYPHIMURIUM, Strain/Indicator: TA1535, Metabolic Activation: RAT, LIVER, S-9, AROCLOR 1254 (10%), Method: PREINCUBATION); “inactive; negative” (Test System: AMES SALMONELLA TYPHIMURIUM, Strain/Indicator: TA1537, Metabolic Activation: HAMSTER, LIVER, S-9, AROCLOR 1254 (10%), Method: PREINCUBATION); “inactive; negative” (Test System: AMES SALMONELLA TYPHIMURIUM, Strain/Indicator: TA1537, Metabolic Activation: NONE, Method: PREINCUBATION); “inactive; negative” (Test System: AMES SALMONELLA TYPHIMURIUM, Strain/Indicator: TA1537, Metabolic Activation: RAT, LIVER, S-9, AROCLOR 1254 (10%), Method: PREINCUBATION).

Consider `O=C(CCl)NCO`, for which the mutagenic call under setting [1] is “inactive; negative”; the mutagenic call (Test System: AMES SALMONELLA TYPHIMURIUM, Strain/Indicator: TA97, Metabolic Activation: RAT, LIVER, S-9, AROCLOR 1254, Method: STANDARD PLATE) is “inactive; negative”; the mutagenic call under setting [5] is “inactive; negative”; the mutagenic call under setting [2] was “inactive; negative”; the mutagenic call (Test System: AMES SALMONELLA TYPHIMURIUM, Strain/Indicator: TA98, Metabolic Activation: RAT, LIVER, S-9, AROCLOR 1254, Method: PREINCUBATION) was “inactive; negative”; the mutagenic call under setting [7] is “inactive; negative”. Besides, the mutagenic call was “inactive; negative” under setting [6]; “inactive; negative” under setting [3]; “inactive; negative” (Test System: AMES SALMONELLA TYPHIMURIUM, Strain/Indicator: TA100, Metabolic Activation: RAT, LIVER, S-9, AROCLOR 1254, Method: PREINCUBATION); “inactive; negative” under setting [8]; “inactive; negative” under setting [9]; “inactive; negative” under setting [10]. Moreover, the mutagenic call under setting [11] was “inactive; negative”; the mutagenic call under setting [12] was “inactive; negative”; the mutagenic call (Test System: AMES SALMONELLA TYPHIMURIUM, Strain/Indicator: TA1538, Metabolic Activation: NONE, Method: STANDARD PLATE) was “inactive; negative”; the mutagenic call (Test System: AMES SALMONELLA TYPHIMURIUM, Strain/Indicator: TA1538, Metabolic Activation: RAT, LIVER, S-9, AROCLOR 1254, Method: STANDARD PLATE) is “inactive; negative”.

On to `O=[N+]([O-])c1ccc2cc3c(cc2c1)[C@H](O)[C@@H](O)C=C3`, for which the mutagenic call reads like this: under setting [2], “active; positive”; under setting [7], “active; positive”.

As to `Cc1cc2c(nc(N)n2C)c2nc(-c3ccccc3)cnc12`, the mutagenic call under setting [7] was “active; positive”.

Take `O=C(CCNNC(=O)c1ccncc1)NCc1ccccc1`: the mutagenic call reads like this: under setting [2], “inactive; negative”; under setting [7], “inactive; negative”; under setting [3], “active; positive”; under setting [8], “active; positive”; under setting [9], “active; positive”; under setting [10], “active; positive”. The mutagenic call is, setting by setting: under setting [11], “inactive; negative”; under setting [12], “inactive; negative”.

On to `ClCc1cccc(CCl)c1`, for which the mutagenic call under setting [2] is “inactive; negative”.

Source of the values: PubChem BioAssay AID1259407 (Chemical Carcinogenesis Research Information System (CCRIS), 2018).
